Laboratory results published in patent publication US20130190240A1, “TUMOR GROWTH CONTROLLING METHOD TARGETING GALACTOSYLCERAMIDE EXPRESSION FACTOR-1” (priority 2010, published 2013).
Square brackets hold non-standard residues; d marks the D form. Ends that are not written are not given here.

Key:
[1] = test system: COLO205 cells; assay: growth in soft agar medium, COLO205 cells; format: cell-based, human; conditions: oligopeptide introduced with Wr-T
Protocol: (§1) A cell culture solution (1.5 ml), in which agarose (low gelling temperature agarose) was dissolved at a concentration of 0.5% (w/v), was added to a 35 mm dish, cooled and gelled. Onto the resulting gel, a 0.33% agarose/cell culture medium containing 5.0×10^3 cells was added in a volume of 1.5 ml. After gelling, the cells were cultured in a CO2 incubator for 2 weeks. A 0.005% (w/v) aqueous solution of crystal violet (0.5 ml) was added onto the gel and incubated overnight to stain the cells. The 35 mm dish was scanned with a scanner, and colony counts were measured from the resulting image using image analysis software.
(§2) The GEF-1/C constituent oligopeptides were studied for their inhibitory effect on the growth of various tumor cells (B16 cells, HeLa cells, COLO205 cells, KATO III cells, A549 cells and PT45 cells) in soft agar medium.
(§3) In the same manner as shown in (2) above, the GEF-1/C constituent oligopeptides were introduced into various tumor cells and these cells were seeded together with a 0.33% soft agar medium.

[2] = test system: SMAD transcriptional activity; assay: SMAD transcriptional activity (luciferase) with GEF-1/C constituent oligopeptides, B16 cells; format: cell-based, mouse; conditions: oligopeptide 2.5 nmol with peptide transporter Wr-T, 48 hours
Protocol: Each GEF-1/C constituent oligopeptide (2.5 nmol) and a peptide transporter Wr-T (0.2 nmol) were mixed and then diluted to 0.1 ml with PBS, and mixed with a DNA solution for SMAD transcriptional activity testing (0.1 ml). To the respective cells (B16 cells and COLO205 cells) in a 48-well plate, which had been washed with Opti-MEM I medium, the mixture thus prepared was added in a volume of 0.2 ml per well. After 4 hours, 20% FBS/Opti-MEM I medium (0.2 ml) was added to each well. After 48 hours, the respective cells were lysed and the luciferase activity in each lysate was measured.

[3] = test system: B16 cells; assay: growth in soft agar medium, B16 cells; format: cell-based, mouse; conditions: oligopeptide introduced with Wr-T
Protocol: as §1, §2, §3

[4] = test system: B16 cells; assay: in vivo anti-tumor growth effect of oligopeptides, B16 cells in nude mice; parameters: species or system mouse; conditions: cells incubated with oligopeptide 25 nmol and Wr-T for 2 hours, then inoculated subcutaneously into nude mice
Protocol: Each GEF-1/C constituent oligopeptide (25 nmol) and a peptide transporter Wr-T (2 nmol) were mixed and then diluted to 0.1 ml with PBS, to which each cell suspension prepared at 5.0×10^6 cells/ml Opti-MEM I medium was then added in a volume of 0.1 ml and mixed. This cell mixture was incubated in a CO2 incubator at 37° C. for 2 hours and then inoculated subcutaneously into nude mice. The long and short axes of tumor were measured at intervals of a week to calculate the tumor volume (=long axis×(short axis)^2×π/6). After the mice were finally euthanized with carbon dioxide gas, tumor in each mouse was photographed. Subsequently, the tumor was excised and measured for its wet weight.

[5] = test system: HeLa cells; assay: growth in soft agar medium, HeLa cells; format: cell-based, human; conditions: oligopeptide introduced with Wr-T
Protocol: as §1, §2, §3

[6] = test system: B16 cells; assay: in vivo anti-tumor growth effect of siRNA#3, B16 tumor in nude mice; parameters: species or system mouse; conditions: siRNA#3/atelocollagen mixture injected near the tumor, three times at intervals of a week
Protocol: B 16 cells were inoculated subcutaneously into nude mice. After about a week when tumor reached about 5 mm diameter (about […]), an siRNA#3/atelocollagen mixture (0.2 ml) was injected near the tumor. Subsequently, the same siRNA#3/atelocollagen mixture was further injected twice near the tumor at intervals of a week.

[7] = test system: KOP2.16 cells; assay: tube formation inhibition test with GEF-1 siRNAs; format: cell-based, mouse; conditions: siRNA 40 nmol with lipofectamine 2000; transfected KOP2.16 cells seeded on Matrigel
Protocol: To confirm the in vitro anti-angiogenic effect of the GEF-1-siRNAs, a tube formation inhibition test was conducted using vascular endothelial KOP2.16 cells.
Each siRNA (40 nmol) and lipofectamine 2000 (10 μl) were mixed and then diluted to 1.0 ml with Opti-MEM I medium, and added to KOP2.16 cells in a 35 mm dish, which had been washed with Opti-MEM I medium. After 4 hours, 20% FBS-containing Opti-MEM I medium (1.0 ml) was added to the dish. After 48 hours, siRNA-transfected cells were collected and counted, and then suspended in Opti-MEM I medium and seeded again on Matrigel. After 18 to 48 hours, tube formation in the cells was observed. As negative controls, PBS (“None” in FIG. 15) and Stealth RNA Negative Control Medium GC Duplex (Invitrogen) (“siRNA-MNC” in FIG. 15) were used.

[8] = test system: B16 cells; assay: cell migration ability of shRNA-expressing B16 cells, Boyden chamber; format: cell-based, mouse; conditions: B16 cells stably expressing the shRNA
Protocol: (§4) The respective shRNA expression vectors prepared in i) above were each introduced into B16 cells by gene transfer and subjected to drug selection using G418 drug (1 mg/ml). B16 cells expressing the respective shRNAs (B16/shRNA-74 cells, B16/shRNA-157 cells and B16/shRNA-207 cells) were finally obtained by cloning. These cells were confirmed for their GEF-1 expression levels by Western blotting and also examined for their ability of cell migration using a Boyden chamber.

[9] = test system: GEF-1 (Hrs/Hgs); assay: GEF-1 (Hgs) expression level by Western blotting in shRNA-expressing B16 cells; format: cell-based, mouse; conditions: B16 cells stably expressing the shRNA
Protocol: as §4

[10] = test system: COLO205 cells; assay: in vivo anti-tumor growth effect of r9-OP10-11 on established COLO205 tumor in nude mice; parameters: species or system human; conditions: tumor already formed; 35 nmol in PBS around the tumor, four weekly administrations
Protocol: 1.0×10^6 COLO205 cells were inoculated subcutaneously into nude mice to prepare tumor of COLO205 cells. At 10 days after inoculation, a solution of r9-OP10-11 (35 nmol)/PBS was administered in a volume of 0.1 ml around the tumor whose diameter reached 5 to 6 mm (about 100 mm^3) At 7, 14 and 21 days after this administration, the same administration was repeated. The long and short axes of tumor were measured to calculate the tumor volume (=long axis×(short axis)^2×π/6). After the mice were finally euthanized with carbon dioxide gas, tumor in each mouse was photographed. Subsequently, the tumor was excised and measured for its wet weight.

Substance: OP10-10: GEF-1/C constituent oligopeptide KLEIMRQKKQ (SEQ ID NO: 63)
- inhibition of growth ability in soft agar medium [1]: about 50%

Substance: OP10-7: GEF-1/C constituent oligopeptide ALSALREEHR (SEQ ID NO: 60)
- inhibition of SMAD transcriptional activity [2]: about 50%

Substance: OP10-11: GEF-1/C constituent oligopeptide EYLEVQRQLA (SEQ ID NO: 64)
- inhibition of growth ability in soft agar medium [1]: about 50%
- inhibition of SMAD transcriptional activity [2]: about 50%
- inhibition of growth ability in soft agar medium [3]: about 60%
- inhibition of B16 cell tumor growth [4]: ≥ 50%
- inhibition of growth ability in soft agar medium [5]: about 20%

Substance: siRNA#3: stealth RNAi against mouse Hgs; sense 5′-UAGAAUGGACUCCCAGUCUGACUCC (SEQ ID NO: 34, 35) (antisense GGAGUCAGACUGGGAGUCCAUUCUA; listed as RNA, chemistry not given here)
- tumor volume as compared to PBS or siRNA#3-scramble [6]: ≤ 50%
- tumor weight as compared to PBS or siRNA#3-scramble [6]: ≤ 50%
- inhibitory effect on tube formation [7]: significant inhibitory effect

Substance: shRNA-157: shRNA against mouse GEF-1 (Hrs/Hgs) gene, Hgs157 template SEQ ID NO: 26; B16/shRNA-157 cells used as B16/shRNA cells (DNA CCGTTAATGATAAGAACCCACTTCAAGAGAGTGGGTTCTTATCATTAACTTTTTA)
- inhibition of cell migration ability [8]: 95%
- inhibition of Hgs expression [9]: 95%

Substance: OP10-12: GEF-1/C constituent oligopeptide IQRLQEQEKE (SEQ ID NO: 65)
- inhibition of SMAD transcriptional activity [2]: about 50%

Substance: r9-OP10-11: OP10-11 linked to a cell membrane permeable peptide, rrrrrrrrrGPGEYLEVQRQLA (r = D-arginine) (SEQ ID NO: 67) ([dR][dR][dR][dR][dR][dR][dR][dR][dR]GPGEYLEVQRQLA)
- inhibition of growth of COLO205 cell tumor in tumor volume [10]: about 65%
- inhibition of growth of COLO205 cell tumor in tumor weight [10]: about 60%

Substance: siRNA#2: stealth RNAi against mouse Hgs; sense 5′-GGACGAUACUCGUCGACUUGUUCUU (SEQ ID NO: 32, 33) (antisense AAGAACAAGUCGACGAGUAUCGUCC; listed as RNA, chemistry not given here)
- inhibitory effect on tube formation [7]: significant inhibitory effect
